Test results reported in US20230314443A1, “METHODS OF IDENTIFYING INTERACTIONS OF A COMPOUND AND A CONDENSATE, OR A COMPONENT THEREOF, AND USES THEREOF” (Dewpoint Therapeutics, Inc., priority 2020, published 2023).

Columns and labels:
[1] = molecular target: T1, FUS-mEGFP/RNA droplets (Homo sapiens, UniProt P35637); experiment: Rho800 titration in FUS-mEGFP/RNA droplets (confocal imaging of Rho800 and FUS-mEGFP intensity inside droplets); details: increasing Rho800 concentrations, FIG. 4
T1 sequence (P35637 1-526): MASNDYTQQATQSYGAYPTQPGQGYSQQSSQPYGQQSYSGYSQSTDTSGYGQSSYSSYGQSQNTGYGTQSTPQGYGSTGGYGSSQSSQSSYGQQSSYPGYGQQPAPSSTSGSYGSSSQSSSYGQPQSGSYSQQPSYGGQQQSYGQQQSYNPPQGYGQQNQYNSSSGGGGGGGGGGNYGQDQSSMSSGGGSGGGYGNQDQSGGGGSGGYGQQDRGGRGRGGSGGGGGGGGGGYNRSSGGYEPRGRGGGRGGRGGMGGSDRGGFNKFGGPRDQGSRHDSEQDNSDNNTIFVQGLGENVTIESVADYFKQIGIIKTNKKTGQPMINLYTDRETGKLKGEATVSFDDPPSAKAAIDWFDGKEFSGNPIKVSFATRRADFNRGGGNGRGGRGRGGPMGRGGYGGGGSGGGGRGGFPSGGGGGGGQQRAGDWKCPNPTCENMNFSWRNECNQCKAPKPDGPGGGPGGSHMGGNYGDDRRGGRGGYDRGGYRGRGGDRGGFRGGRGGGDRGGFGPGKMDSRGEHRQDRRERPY
Procedure: For partitioning study, droplets were prepared in a low-attachment 384-well plate by mixing recombinant FUS-mEGFP protein with synthetic PrD RNA, in the presence of the indicated concentration of Rho800, at a final concentration of […] FUS-mEGFP and 250 nM PrD RNA, using an automated liquid handler. The droplets were incubated at room temperature, in the dark for 4 hours and imaged using a high content confocal fluorescence microscope. Values indicated on the y-axis of FIG. 4 (n=3) were obtained by quantitative image analysis and represent the mean per well intensity of FUS-mEGFP and Rho800 inside segmented droplets.

[2] = molecular target: T2, FUS-RRM (Homo sapiens, UniProt P35637); experiment: NMR 1H/15N-HSQC titration of FUS-RRM with Rho800 (chemical shift perturbations); assay type: binding; details: CSPs by 1H/15N-HSQC 2D-NMR; FIG. 5A, 5B
T2 construct: made in house; host or cells: E. coli
T2 sequence (P35637 285-371 limits assumed): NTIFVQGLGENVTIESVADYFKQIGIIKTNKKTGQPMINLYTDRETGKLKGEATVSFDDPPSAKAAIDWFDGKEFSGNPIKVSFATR
Procedure: For binding study, recombinant ^15N-isotope and ^15N/^13C-labeled FUS-RRM proteins were expressed in E. coli and purified using published methods. NMR peak assignments were transferred from publicly available data repositories and confirmed using standard 3D NMR methods. […] protein was titrated with Rho800, ^1H/^15N-HSQC (heteronuclear single quantum coherence) were recorded, and chemical shift perturbations (CSPs) were calculated from the […] Rho800 spectra.

[3] = molecular target: T3, FUS-EGFP condensate (Homo sapiens, UniProt P35637); experiment: Modulation of FUS-EGFP partitioning into the condensate by RhoB (confocal microscopy); assay type: biochemical; details: 1.5 μM RhoB vs no RhoB; FIG. 3C
T3 sequence (P35637 1-526): T1 sequence (P35637 1-526)
Procedure: EGFP-tagged FUS protein (“FUS-EGFP”) and RhoB were mixed and subjected to phase separation condition. The final concentration of RhoB in the reaction was 1.5 μM. For control experiment, no RhoB was added. Images were acquired with a confocal microscope, and EGFP signal inside (I-in) and outside (I-out) of the FUS-EGFP condensate was measured as described above.

[4] = molecular target: T4, FUS-SNAP protein (Homo sapiens, UniProt P35637); experiment: Binding affinity of RhoB to FUS-SNAP protein in the light phase (Dianthus MST); details: FIG. 3B
T4 sequence (P35637 1-526): T1 sequence (P35637 1-526)
Procedure: The binding affinity (Kd) of RhoB to FUS-SNAP protein in the light phase was measured using Dianthus MST technology.

[5] = molecular target: T5, FUS-SNAP condensates (Homo sapiens, UniProt P35637); experiment: Partitioning of RhoB into FUS-SNAP condensates formed in vitro (fluorescence and mass spectrometry); details: RhoB 5 μM and 1.25 μM; fluorescence spectroscopy (RhoB-FL) and mass spectroscopy (RhoB-MS); fraction of RhoB in supernatant; FIG. 3A
T5 sequence (P35637 1-526): T1 sequence (P35637 1-526)
Procedure: SNAP-tagged FUS protein (“FUS-SNAP”) and RhoB were mixed and subjected to a phase separation condition. The final concentration of RhoB in the reaction was 5 μM and 1.25 μM. For control experiment, no RhoB was added. The partition characteristic of RhoB to FUS-SNAP condensate was then measured by both a fluorescence spectroscopy and a mass spectroscopy-based technique described herein.
Images of the condensate droplets were acquired with a confocal microscope for appropriate setting for RhoB. The background signal of FUS-SNAP droplets in the absence of RhoB was also recorded. Fluorescence intensity was measured inside a FUS-SNAP condensate and in a region next to (outside) the FUS-SNAP condensate, and corrected for background signal (no RhoB controls), to calculate the fraction of RhoB in extra-condensate solution (i.e., supernatant).
A mass spectrometry-based method was used to measure the partition characteristics of RhoB and compared to measurements obtained using the fluorescence-based assay above. […] The amount of RhoB in the supernatant and a reference reaction were measured using mass spectrometry. The partition characteristic was then calculated based on the fraction of RhoB in extra-condensate solution (i.e., supernatant).

SMILES | partitioning of Rho800 into the condensate droplets ([1]; 4 hours at room temperature) | partitioning of FUS-mEGFP in the condensate droplets in the presence of Rho800 [1] | binding of Rho800 to FUS-RRM domain [2] | partitioning of EGFP-labeled FUS into the condensate in the presence of RhoB [3] | Kd [4] [µM] | partitioning of RhoB into FUS-SNAP condensates [5]
N#CC1=c2cc3c4c(c2Oc2c1cc1c5c2CCCN5CCC1)CCC[N+]=4CCC3 [Rho800] | increased partitioning of the compound into the condensate droplets | FUS-mEGFP de-partitioning from the condensate droplets | binds directly to the FUS-RRM domain |  |  | 
CCN(CC)c1ccc2c(-c3ccccc3C(=O)O)c3ccc(=[N+](CC)CC)cc-3oc2c1 [RhoB, Rhodamine B] |  |  |  | partitioned less into the condensate | 17.1 | partitions into FUS-SNAP condensates
